Laboratory results as given in patent US20090325960A1, “METHOD FOR TREATING INFLAMMATORY DISEASES USING RHO KINASE INHIBITOR COMPOUNDS” (priority 2008, published 2009).
Like-named read-outs stand apart in the source and are kept apart here.

What was measured:
[1] = system: monocytes, endothelial cells, and lymphocytes; conditions: cited from earlier work
[2] = system: ova-sensitized, ova-challenged BALB/c mice; experiment: In vivo anti-inflammatory activity, mouse ovalbumin sensitization model (BALF cells and cytokines); conditions: dosed orally to day 31, anti-inflammatory dosing paradigm
Procedure: Upon arrival, the animals were randomized into groups of five males per cage and assigned to a dosing group. Animals were quarantined for 7 days under test conditions. […] Animals were sensitized on day 0 and 14 of study by an intraperitoneal injection with 20 μg of ovalbumin (ova) and 2.0 mg aluminum hydroxide (alum) which initiates the development of a specific T-helper (Th) cells type 2 resulting in asthmatic animals (denoted as Ova in the fugures). One group of animals received an injection of saline to use as control animals (denoted as normal in the figures). […] Aerosol challenge consists of using an Aerogen Aeroneb nebulizer and controller with a particle size of 4-6 μm mass median aerodynamic diameter (MMAD) with a distribution of 400 μl per minute. This aerosol challenge is necessary to target the Th2-driven allergic inflammation in the lower airways.
The anti-inflammatory dosing paradigm (FIG. 5) was utilized to evaluate the anti-inflammatory effects of experimental compounds. […] On day 32 of the experiment, after measurement of airway hyperreactivity, BALF was collected and all animals were anesthetized, bled and euthanized.
Bronchoalveolar lavage fluid (BALF) was collected by infusing 3.0 ml of saline with 10% fetal calf serum into the lungs via the trachea and then withdrawing the fluid. The total amount of cells/ml of BALF fluid was determined via manual cell count on hemocytometer. The BALF was centrifuged, supernatant removed and analyzed for cytokine concentrations as described below, and cell pellet reconstituted in 500 μL of fluid. Cytospin slides were prepared from the cell pellet using 100 μL of fluid and spinning samples for 5 minutes at 5000 rpms in a cytospin centrifuge, Following Hema3 stain, relative percentages of individual leukocytes were determined on a 200 cell count for each sample. The final concentration of individual leukocyte cell types per ml of BALF was determined by multiplication of the relative percentage of individual leukocytes with the total amount of cells/ml of BALF fluid.
The concentrations of cytokines in the BALF samples were determined using commercially available Bio-plex kits (Bio-Rad) for the detection of mouse IL-5, IL-13, and Eotaxin. The analysis of cytokine levels was measured using the Bio-Plex 200 (Bio-Rad) system according to the manufacturer's instructions.

[3] = system: ova-sensitized, ova-challenged BALB/c mice; experiment: Prevention of airway hyperreactivity (Penh, methacholine) in mouse ovalbumin sensitization model; format: in vivo; conditions: days 27 to 31; for airway hyperreactivity: intratracheal once a day
Procedure: The anti-inflammatory dosing paradigm consists of dosing the animals once a day starting on day 27 and finishing on either day 30 or 31 (1 hr prior to the aerosolized ovalbumin challenges on days 28 to 30) but not on day 32 when hyperreactivity evaluation occurs. […] Exposure to the methacholine doses consisted of a 3 minute period during which a nebulizer was aerosolizing the methacholine and an additional 3 minute period following the cessation of nebulization. […] Enhanced pause (Penh), a unitless index of airway hyperreactivity, is derived from the expiratory side of the respiratory waveform measured via the plethysmograph and is used as an indirect measure of airway resistance and hyperreactivity. […] Following the methacholine dose response, BALF was collected and all animals were anesthetized, bled and euthanized. […] The Penh value at each of the dose levels of methacholine represents the 6-minute average response. Change from baseline (CFB) in Penh was calculated at each methacholine dose and the area under the curve (AUC) for these CFB values was calculated using the trapezoidal rule. This same approach was applied for each mouse across multiple experiments. […] Data from equal experimental conditions across experiments performed on different days were pooled for statistical analysis and data reporting. […] A random intercept for each experiment was assumed to account for possible similarities of the results obtained from a given experiment (i.e., as a “blocking effect”). […] For FIG. 11, linear AUC values from compound treated mice were reported as a percent of linear AUC values from vehicle-treated ovalbumin-sensitized/ovalbumin-challenged (asthmatic) mice.

[4] = Rat oral pharmacokinetics (plasma); format: in vivo; conditions: rat oral PK, mean of n = 3 rats; for AUC (0-last): time zero through last observable value
Procedure: Plasma (EDTA K2 anticoagulant) was collected from male, cannulated, CD Sprague Dawley rats to determine the pharmacokinetics of formulations containing compound inhibitors of Rho kinase. Each animal was dosed orally with a 4 ml/kg solution or suspension of each test compound in 10 mM acetate buffered saline, pH 4.5 at a final concentration range of 20-30 mol/kg. Blood was collected at 0.25, 0.5, 1, 2, 4, 6, 8, and 24 hours. Plasma samples were assayed for the concentration of the test compound using an on-line, solid phase extraction LC/MS/MS analysis system.
Pharmacokinetic analyses were performed using WinNonlin software version 5.2 (Pharsight Corporation, Mountain View, Calif.).
As determined from the plasma concentration versus time curves, the time to peak and peak exposure are represented by the values Tmax and Cmax, respectively. The AUC values (nM*hr) shown were calculated as the areas under the plasma concentration versus time curves from time zero through the time of the last observable value and represent the total exposure of the compound over the course of the study. Half-life values or the amount of time required for the plasma levels of the compound to decline to half the initial value are represented as t1/2.

[5] = system: cytokine secretion from LPS-stimulated human monocytes; experiment: Human monocyte cytokine secretion assay (LPS-stimulated); format: cell-based
Procedure: Peripheral blood from healthy human volunteers was collected and the monocytes isolated via Ficoll-paque density centrifugation. […] The cells were allowed to pre-incubate with test compound at the indicated concentration for 30 minutes (37° C., 5% CO2, humidified air); after which the supernatant was removed and media containing compound and 1 ng/mL LPS was added. Cells were allowed to incubate with compounds and LPS for 4 hours at 37° C. after which the supernatant was removed and stored at −80° C. Cytokine concentrations in the supernatant were determined using commercially available Bio-Rad Bio-Plex™ kits according the manufacturer's instructions.

[6] = system: A-10 rat thoracic aorta cells; experiment: PDGF-stimulated smooth muscle cell proliferation assay (BrdU incorporation); format: cell-based
Procedure: Effects on cell proliferation were measured using a bromodeoxyuridine (BrdU) incorporation assay. […] Serum free media containing 0.1% BSA was added to the cells. 24 hours later the media was removed and replaced with warmed serum free media. […] Proliferation was then monitored using the BrdU Cell Proiferation Assay, HTS (Calbiochem cat. # HTS01). BrdU was allowed to incorporate into cells for 24 hours prior to the addition of fixative/denaturing solution and the fluorometric detection of incorporated BrdU using a BrdU antibody as per manufacturer's directions. Data are reported as a percent of the PDGF-stimulated BrdU incorporation.

Mnk2 = target: T1, Mnk2 (Homo sapiens, UniProt Q9HBH9); format: biochemical
T1 construct: purchased Upstate, Millipore Bioscience Division (KinaseProfiler service)
T1 sequence (Q9HBH9 whole entry): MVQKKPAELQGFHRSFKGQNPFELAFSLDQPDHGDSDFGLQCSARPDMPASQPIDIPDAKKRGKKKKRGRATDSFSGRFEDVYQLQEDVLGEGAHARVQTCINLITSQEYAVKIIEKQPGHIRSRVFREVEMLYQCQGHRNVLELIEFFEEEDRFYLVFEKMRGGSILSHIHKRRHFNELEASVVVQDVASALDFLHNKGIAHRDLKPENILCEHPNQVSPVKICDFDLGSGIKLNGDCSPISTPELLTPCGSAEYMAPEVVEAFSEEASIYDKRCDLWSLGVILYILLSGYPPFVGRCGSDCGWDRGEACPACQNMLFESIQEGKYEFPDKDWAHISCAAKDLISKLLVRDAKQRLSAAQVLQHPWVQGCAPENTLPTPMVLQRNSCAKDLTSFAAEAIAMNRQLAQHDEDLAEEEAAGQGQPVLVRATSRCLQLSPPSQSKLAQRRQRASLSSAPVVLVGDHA
Procedure: (§1) Compounds of Formulae I and II were examined for activity against a selected panel of kinases using the KinaseProfiler™ enzyme profiling services (Upstate, Millipore Bioscience Division). Percent kinase activity at 10 μM and 1 μM test compound and 10 μM ATP was determined against 40 wild-type recombinant human kinases according to Upstate's standard protocol: ASK1, BTK, CSK, c-RAF, GCK, GSK3β, IKKα, IKKβ, IRAK1, IRAK4, JNK1α1, JNK2α2, JNK3, ERK1, ERK2, MAPKAP-K2, MAPKAP-K3, MEK1, MKK4, MKK6, MKK7β, Mnk2, MSK1, PAK3, PDK1, PRAK, ROCK1, Rsk2, SAPK2a, SAPK2b, SAPK3, SAPK4, SRPK1, SRPK2, Syk, TAK1, TBK1, PI3-Kβ, PI3-Kγ, PI3-Kδ.

ERK1 = target: T2, ERK1 (Homo sapiens, UniProt P27361); experiment: Kinase panel screen (KinaseProfiler), ERK1; format: biochemical; conditions: 1 μM test compound, 10 μM ATP
T2 construct: purchased Upstate, Millipore Bioscience Division (KinaseProfiler service)
T2 sequence (P27361 whole entry): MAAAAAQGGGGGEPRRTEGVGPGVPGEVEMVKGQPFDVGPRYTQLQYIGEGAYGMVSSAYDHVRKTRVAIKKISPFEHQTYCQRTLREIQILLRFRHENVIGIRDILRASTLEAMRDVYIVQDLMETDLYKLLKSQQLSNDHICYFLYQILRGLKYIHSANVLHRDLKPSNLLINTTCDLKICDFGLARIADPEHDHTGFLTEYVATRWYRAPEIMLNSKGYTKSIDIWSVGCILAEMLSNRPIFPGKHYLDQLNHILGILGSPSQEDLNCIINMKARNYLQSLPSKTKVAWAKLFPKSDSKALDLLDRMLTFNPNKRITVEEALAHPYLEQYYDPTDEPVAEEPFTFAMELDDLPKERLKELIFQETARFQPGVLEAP
Procedure: as §1

ERK2 = target: T3, ERK2 (Homo sapiens, UniProt P28482); experiment: Kinase panel screen (KinaseProfiler), ERK2; format: biochemical; conditions: 1 μM test compound, 10 μM ATP; read-out: Percent inhibition ERK2 at 1 μM
T3 construct: purchased Upstate, Millipore Bioscience Division (KinaseProfiler service)
T3 sequence (P28482 whole entry): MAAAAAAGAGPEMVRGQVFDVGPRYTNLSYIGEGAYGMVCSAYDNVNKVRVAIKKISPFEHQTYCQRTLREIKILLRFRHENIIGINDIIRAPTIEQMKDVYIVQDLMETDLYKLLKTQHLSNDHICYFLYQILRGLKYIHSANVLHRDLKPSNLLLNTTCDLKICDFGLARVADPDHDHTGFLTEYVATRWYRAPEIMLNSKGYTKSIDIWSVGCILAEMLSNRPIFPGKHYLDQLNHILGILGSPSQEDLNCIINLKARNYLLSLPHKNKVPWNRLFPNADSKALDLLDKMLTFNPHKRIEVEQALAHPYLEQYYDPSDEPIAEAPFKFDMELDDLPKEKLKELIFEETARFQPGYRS
Procedure: as §1

[7] = 10 μM of test compound, 1 ng/mL LPS, 4 hours, read-out: IL-1β % (Percent inhibition values for inhibition of cytokine secretion)
[8] = 10 μM of test compound, 1 ng/mL LPS, 4 hours, read-out: TNF-α % (Percent inhibition values for inhibition of cytokine secretion)
[9] = read-out: IL-6 % (Percent inhibition values for inhibition of cytokine secretion), 10 μM of test compound, 1 ng/mL LPS, 4 hours

Row | SMILES | activity at 10 µM [5, 7] | activity at 10 µM [5, 8] | activity at 10 µM [5, 9] | also measured
1 | C[C@@H](N)[C@H]1CC[C@H](C(=O)Nc2ccncc2)CC1 [Compound Y-27632] | – | – | – | expression of IL-1β, TNFα, and various other cytokines [1]: suppress expression
2 | c1cc2cc(CN3CCC[C@@H](Nc4ccc5[nH]ncc5c4)C3)ccc2o1 [Compound 1.131, (R)-N-(1-(benzofuran-5-ylmethyl)piperidin-3-yl)-1H-indazol-5-amine] | – | – | – | airway eosinophil infiltration (eosinophils per ml of BALF) [2]: reduced; airway hyperreactivity to metacholine on Day 32 ([3]; oral 15 μMol/kg once a day): prevention of airway hyperreactivity; Vz_F [4]: 6.8 L/kg
3 | C=Cc1ccc(CN2CCC[C@@H](Nc3ccc4[nH]ncc4c3)C2)cc1 [Compound 1.208, (R)-N-(1-(4-vinylbenzyl)piperidin-3-yl)-1H-indazol-5-amine] | 62% | 92% | 109% | –
4 | Fc1ccc(CN2CCC[C@H](Nc3ccc4[nH]ncc4c3)C2)cc1F [Compound 1.072, (S)-N-(1-(3,4-difluorobenzyl)piperidin-3-yl)-1H-indazol-5-amine] | 98.2% | 83.8% | 96.1% | –
5 | c1cc2c(cc1CN1CCC[C@@H](Nc3ccc4[nH]ncc4c3)C1)CCO2 [Compound 1.246, (R)-N-(1-((2,3-dihydrobenzofuran-5-yl)methyl)piperidin-3-yl)-1H-indazol-5-amine] | 103% | 79% | 108% | –
6 | c1ccc(CN2CCC[C@H](Nc3ccc4[nH]ncc4c3)C2)cc1 [Compound 1.227, (S)-N-(1-benzylpiperidin-3-yl)-1H-indazol-5-amine] | 69.4% | 79.3% | 66.7% | –
7 | CSc1ccc(CN2CCC[C@@H](Nc3ccc4[nH]ncc4c3)C2)cc1 [Compound 1.074, (R)-N-(1-(4-(methylthio)benzyl)piperidin-3-yl)-1H-indazol-5-amine] | – | – | 96% | –
8 | COc1ccc(CN2CCC[C@@H](Nc3ccc4[nH]ncc4c3)C2)cc1 [Compound 1.226, (R)-N-(1-(4-methoxybenzyl)piperidin-3-yl)-1H-indazol-5-amine] | 99.3% | 66.6% | – | –
9 | CSc1ccc(CN2CC[C@@H](Nc3cccc4cnccc34)C2)cc1 [Compound 2.026, (R)-N-(1-(4-(methylthio)benzyl)pyrrolidin-3-yl)isoquinolin-5-amine] | – | – | – | Percent of PDGF Induced Proliferation at 10 μM Avg ([6]; 10 μM, 10 ng/mL PDGF): 52.0%; Proliferation at 10 μM ([6]; average percent of PDGF stimulated proliferation at 10 μM test compound): 52.0%; Cmax [4]: BLQ; Tmax [4]: BLQ; Vz_F [4]: BLQ; t½ [4]: BLQ; AUC (0-last) [4]: BLQ
10 | NC(=O)Cn1ccc2cc(CN3CCC[C@@H](Nc4ccc5[nH]ncc5c4)C3)ccc21 [Compound 1.162, (R)-2-(5-((3-(1H-indazol-5-ylamino)piperidin-1-yl)methyl)-1H-indol-1-yl)acetamide] | – | – | – | Percent inhibition Mnk2 at 1 μM (Mnk2): 111
11 | OCCOc1cccc(CN2CCC[C@@H](Nc3ccc4[nH]ncc4c3)C2)c1 [Compound 1.092, (R)-2-(3-((3-(1H-indazol-5-ylamino)piperidin-1-yl)methyl)phenoxy)ethanol] | – | – | – | Vz_F [4]: 19.0 L/kg
12 | c1ccc(CN2CCC[C@@H](Nc3ccc4[nH]ncc4c3)C2)cc1 [Compound 1.110, (R)-N-(1-benzylpiperidin-3-yl)-1H-indazol-5-amine] | 134% | 119% | 112% | –
13 | CCc1ccc(CN2CCC[C@@H](Nc3ccc4[nH]ncc4c3)C2)cc1 [Compound 1.136, (R)-N-(1-(4-ethylbenzyl)piperidin-3-yl)-1H-indazol-5-amine] | – | – | – | Cmax [4]: BLQ; Tmax [4]: BLQ; Vz_F [4]: BLQ; t½ [4]: BLQ; AUC (0-last) [4]: BLQ
14 | Brc1ccc(CN2CCC[C@H](Nc3ccc4[nH]ncc4c3)C2)cc1 [Compound 1.142, (S)-N-(1-(4-bromobenzyl)piperidin-3-yl)-1H-indazol-5-amine] | 82.8% | – | – | –
15 | c1cc2cc(CN3CCC[C@@H](Nc4ccc5[nH]ncc5c4)C3)ccc2[nH]1 [Compound 1.143, (R)-N-(1-((1H-indol-5-yl)methyl)piperidin-3-yl)-1H-indazol-5-amine] | 76.8% | – | – | –
16 | Fc1ccc(CN2CCC[C@@H](Nc3ccc4[nH]ncc4c3)C2)cc1 [Compound 1.146, (R)-N-(1-(4-fluorobenzyl)piperidin-3-yl)-1H-indazol-5-amine] | – | 97.7% | 128% | –
17 | O=C(COc1cccc(CN2CCC[C@@H](Nc3ccc4[nH]ncc4c3)C2)c1)N1CCOCC1 [Compound 1.127, (R)-2-(3-((3-(1H-indazol-5-ylamino)piperidin-1-yl)methyl)phenoxy)-l-morpholinoethanone] | 198% | 97.3% | 67.3% | –
18 | Cc1ccc(CN2CCC[C@H](Nc3ccc4[nH]ncc4c3)C2)cc1 [Compound 1.078, (S)-N-(1-(4-methylbenzyl)piperidin-3-yl)-1H-indazol-5-amine] | 60.4% | 88.1% | 111% | –
19 | OCCn1ccc2cc(CN3CC[C@@H](Nc4cccc5cnccc45)C3)ccc21 [Compound 2.066, (R)-2-(5-((3-(isoquinolin-5-ylamino)pyrrolidin-1-yl)methyl)-1H-indol-1-yl)ethanol] | – | – | – | airway hyperreactivity [3]: prevention of airway hyperreactivity; Percent inhibition at 1 µM (ERK1): ~50%; activity at 1 µM (ERK2): ~50%; Percent inhibition Mnk2 at 1 μM (Mnk2): 99
20 | C=Cc1ccc(CN2CCC[C@H](Nc3ccc4[nH]ncc4c3)C2)cc1 [Compound 1.229, (S)-N-(1-(4-vinylbenzyl)piperidin-3-yl)-1H-indazol-5-amine] | 44.9% | 50.7% | 63.2% | –
21 | Clc1cccc(CN2CCC[C@H](Nc3ccc4[nH]ncc4c3)C2)c1 [Compound 1.170, (S)-N-(1-(3-chlorobenzyl)piperidin-3-yl)-1H-indazol-5-amine] | 80.6% | 67.8% | 72.7% | –
22 | Oc1cccc(CN2CCC[C@@H](Nc3ccc4[nH]ncc4c3)C2)c1 [Compound 1.145, (R)-3-((3-(1H-indazol-5-ylamino)piperidin-1-yl)methyl)phenol] | 129% | – | – | –
23 | Cc1ccc(CN2CCC[C@H](Nc3ccc4[nH]ncc4c3)C2)cc1O [Compound 1.151, (S)-5-((3-(1H-indazol-5-ylamino)piperidin-1-yl)methyl)-2-methylphenol] | – | – | 114% | –
24 | NC(=O)Cn1ccc2ccc(CN3CC[C@@H](Nc4cccc5cnccc45)C3)cc21 [Compound 2.058, (R)-2-(6-((3-(isoquinolin-5-ylamino)pyrrolidin-1-yl)methyl)-1H-indol-1-yl)acetamide] | – | – | 1.3% | –
25 | Cc1ccc(CN2CCC[C@@H](Nc3ccc4[nH]ncc4c3)C2)cc1OCCO [Compound 1.161, (R)-2-(5-((3-(1H-indazol-5-ylamino)piperidin-1-yl)methyl)-2-methylphenoxy)ethanol] | – | – | – | airway hyperreactivity [3]: prevention of airway hyperreactivity; Proliferation at 1 μM ([6]; average percent of PDGF stimulated proliferation at 1 μM test compound): 50.0%; Percent inhibition Mnk2 at 1 μM (Mnk2): 108
